Test system: hNPC
Test: Immunofluorescence staining and high-content cell analysis of differentiation markers in hNPCs differentiated after 24 hour neurotoxin treatment
Assay type: cell-based, human
Conditions: for level of GFAP (glial marker): hNPC treated 24 hours
Source text: In an example, high-content cell analysis from cells grown in each well in a 96-well plate was sufficient to detect multiple markers via antibody staining and to be normalized to the DAPI signal, a common baseline measure of DNA content. […] In this example, hNPC are indicated by NESTIN (NES) and SRY-Box 2 (SOX2). Glial Fibrillary Acidic Protein (GFAP) is used as a marker of glial cells (both astrocytes and radial glia), and the neuron-specific class III β-tubulin (TUJ1) is used to indicate neurons. Expression of both GFAP and TUJ1 increased at 21 days and 50 days following differentiation, while both SOX2 and NES decreased at 21 days. Levels of SOX2 expression returned to baseline following 50 days.
A broad range of doses for each toxin was selected to determine the dose response and capture the full range to which a developing human brain may be exposed. Cultured hNPC's were treated for 24 hours to avoid complications associated with non-specific toxicity that may occur with chronic treatment, and because we were interested in whether early, acute exposure produces long-term effects detectable in our assay.

## CC(C)(c1ccc(O)cc1)c1ccc(O)cc1 [BPA, bisphenol A]
21D time point, low to moderate doses
  level of GFAP (glial marker): increase
50D time point, low to moderate doses
  level of GFAP (glial marker): increase

## C[N+]([O-])=NCO [MAM, methylazoxymethanol]
21D time point, increasing doses, vs DMSO control
  level of GFAP (glial marker): striking increase
50D time point, vs DMSO control
  level of GFAP (glial marker): general decrease
24 hours, across doses
  hNPC markers (NESTIN and SOX2): clear dose-dependent increase
21 days, across increasing doses
  hNPC-GLIA population (markers of hNPC and glial cells): significant increase
21 days, as a function of increasing dose
  neuronal population (NEURON): striking decrease
50 days
  hNPC-GLIA population (markers of hNPC and glial cells): decreased
  neuronal population (NEURON): increased

## CCCC(CCC)C(=O)O [VPA, valproic acid]
Across differentiation time points, compared with MAM and BPA
  level of GFAP (glial marker): more modest effects
